The values below are quoted from earlier work in US20220378756A1, “ACTIVATING PYRUVATE KINASE R” (FORMA Therapeutics, Inc., priority 2019, published 2022).

Read-outs that look alike come from different tables or passages of the source.

The target of one data set is T1, aromatase (Homo sapiens, UniProt P11511).
T1 sequence (P11511 1-503): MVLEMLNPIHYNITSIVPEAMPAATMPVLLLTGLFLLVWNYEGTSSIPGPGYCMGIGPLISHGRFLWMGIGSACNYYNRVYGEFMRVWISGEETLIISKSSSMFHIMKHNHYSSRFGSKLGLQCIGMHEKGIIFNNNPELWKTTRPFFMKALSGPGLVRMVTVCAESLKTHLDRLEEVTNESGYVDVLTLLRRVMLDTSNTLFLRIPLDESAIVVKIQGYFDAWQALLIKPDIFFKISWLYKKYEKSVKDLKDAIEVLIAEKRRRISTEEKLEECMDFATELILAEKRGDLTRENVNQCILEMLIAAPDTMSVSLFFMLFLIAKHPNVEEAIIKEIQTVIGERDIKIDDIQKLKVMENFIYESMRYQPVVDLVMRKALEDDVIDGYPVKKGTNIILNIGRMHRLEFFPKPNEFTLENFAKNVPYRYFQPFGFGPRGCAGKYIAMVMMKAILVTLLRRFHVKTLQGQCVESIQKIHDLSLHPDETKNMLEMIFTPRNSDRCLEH
Particulars: Yang et al. 2018; Grace et al. 2019; cited from earlier work.

For data set [1] the following is noted: cited from earlier work.

`O=C(c1ccc(NS(=O)(=O)c2cccc3cccnc23)cc1)N1CCN(CC2CC2)CC1` [AG-348]: the aromatase inhibition entry at aromatase is reported as “Aromatase inhibition has been observed”.

In the case of `CC(C)n1nccc1-c1ncccc1COc1cccc(O)c1C=O` [voxelotor, 2-hydroxy-6-((2-(1-isopropyl-1H-pyrazol-5-yl)pyridin-3-yl)methoxy)benzaldehyde], in data set [1] (plasma), the “AUC increase with high-fat, high-calorie meal vs fasted” value is 42%; the “Cmax increase with high-fat, high-calorie meal vs fasted” value is 95%; the “steady state AUC higher in HbSC vs HbSS genotype patients” value is on record as 23%; the “steady state Cmax higher in HbSC vs HbSS genotype patients” value is 15%. Further, in data set [1] (whole blood), the “AUC increase with high-fat, high-calorie meal vs fasted” value is 42%; the “Cmax increase with high-fat, high-calorie meal vs fasted” value is 45%; the “steady state AUC higher in HbSC (n=11) vs HbSS (n=220) genotype patients” value is recorded as 50%; the “steady state Cmax higher in HbSC (n=11) vs HbSS (n=220) genotype patients” value is 45%.
